BindingDB's records for PubMed 39651809 (Pfizer Inc.)

Assay: Inhibition of SLP76 phosphorylation at Ser376 in human Jurkat cells incubated for 30 mins by HTRF assay

SMILES	IC50 [nM]
CCCn1cnnc1-c1cccc(N2Cc3c(cc(N(C)C)nc3CNC)C2=O)n1 [US11142525, Example 46]	121
CNCc1nc(N(C)C(C)C)cc2c1CN(c1cccc(-c3nnc4n3[C@@H](CF)CC4)n1)C2=O [US11684616, Example 205]	52
CC(C)n1cnnc1-c1cccc(NC(=O)c2cccc3c2OCC(N)C3)n1 (stereo not drawn)	1080
CC(C)n1cnnc1-c1cccc(NC(=O)c2cccc3c2nc(CN)n3C)n1	1070
CNCc1nc(N(C)C)cc2c1CN(c1cccc(-c3nncn3[C@@H](C)CC(F)(F)F)n1)C2=O [US11142525, Example 17]	70
CC[C@H](C)n1cnnc1-c1cccc(NC(=O)c2cccc3c2nc(CN)n3C)n1	139
CNCc1cc(OC)cc2c1CN(c1cccc(-c3nncn3C(C)C)n1)C2=O	383
CNCc1nc(N(C)C)cc2c1CN(c1cccc(-c3nncn3C(C)C)n1)C2=O [US11142525, Example 1]	112
COc1ccc2c(c1CN)CN(c1cccc(-c3nncn3[C@@H](C)CC(F)(F)F)n1)C2=O	520
CCCn1cnnc1-c1cccc(N2Cc3c(cc(N4CCC[C@H]4C)nc3CNC)C2=O)n1 [US11142525, Example 55]	34
CCC(C)n1cnnc1-c1cccc(NC(=O)c2cccc3c2OCC(N)C3)n1 (stereo not drawn)	222
CNCc1nc(N(C)C(C)C)cc2c1CN(c1cccc(-c3nnc4n3[C@@H](C)CC4)n1)C2=O [US11684616, Example 210]	47
CNCc1cc(OC)cc2c1CN(c1cccc(-c3nncn3[C@@H](C)CC(F)(F)F)n1)C2=O	115
CC[C@@H](N)c1nc(N2CCC[C@H]2C)cc2c1CN(c1cccc(-c3nncn3CC)n1)C2=O [US11684616, Example 140]	53
CCCn1cnnc1-c1cccc(N2Cc3c(cc(N(C)C(C)C)nc3CNC)C2=O)n1 [US11142525, Example 63]	87
C[C@@H]1CCCN1c1cc2c(c([C@@H](C)N)n1)CN(c1cccc(-c3nnc4n3[C@@H](C)CC4)n1)C2=O [US11684616, Example 24]	53
CCCn1c(C)nnc1-c1cccc(N2Cc3c(cc(N(C)C(C)C)nc3CNC)C2=O)n1 [US11142525, Example 64]	81
CC[C@H]1CCc2nnc(-c3cccc(N4Cc5c(cc(N(C)C(C)C)nc5CNC)C4=O)n3)n21 [US11684616, Example 201]	37
